Patent publication US11174226B2, “Azetidinimines as carbapenemases inhibitors” (priority 2015, dated 2021)

Legend:
NDM-1 Enzyme = NDM-1 Enzyme (Klebsiella pneumoniae, UniProt C7C422); experiment: Imipenem hydrolysis followed by UV absorbance slope, NDM-1 enzyme; format: biochemical; settings: for inhibition at 5 µM: C 5 μM
Procedure: (§1) These tests were conducted by comparing UV absorbance slope measurements of impenem alone, and then imipenem with the concerned azetidinimines at given concentrations in the presence of the enzyme. It was thus possible to monitor the hydrolysis of imipenem. Lower the value of the slope, the higher is the percentage of inhibition of the enzyme.

OXA-48 Enzyme = OXA-48 Enzyme (Klebsiella pneumoniae, UniProt Q6XEC0); experiment: Imipenem hydrolysis followed by UV absorbance slope, OXA-48 enzyme; format: biochemical; settings: for inhibition at 10 µM / OXA-48 Enzyme Inhibition %: C 10 μM; for OXA-48 Enzyme, effect in words: Inhibition %, IC50
Procedure: as §1

[1] = Stability tests of imipenem with increasing concentrations of tested molecules
Procedure: as §1
Stability tests of imipenem with increasing concentrations of tested molecules of the present invention (T4#1, i.e. compound #1 of table 4; T4#7 i.e. compound #7 of table 4; T4#9 i.e. compound #9 of table 4; T4#2 i.e. compound #2 of table 4) were also conducted (Table 2).

KPC Enzyme = KPC Enzyme (Klebsiella pneumoniae, UniProt Q9F663); experiment: Imipenem hydrolysis followed by UV absorbance slope, KPC enzyme; format: biochemical; settings: for inhibition at 10 µM / KPC Enzyme Inhibition %: C 10 μM; for inhibition at 5 µM: C 5 μM
Procedure: as §1

Sequence of OXA-48 Enzyme (Q6XEC0 23-265, looked up, species assumed): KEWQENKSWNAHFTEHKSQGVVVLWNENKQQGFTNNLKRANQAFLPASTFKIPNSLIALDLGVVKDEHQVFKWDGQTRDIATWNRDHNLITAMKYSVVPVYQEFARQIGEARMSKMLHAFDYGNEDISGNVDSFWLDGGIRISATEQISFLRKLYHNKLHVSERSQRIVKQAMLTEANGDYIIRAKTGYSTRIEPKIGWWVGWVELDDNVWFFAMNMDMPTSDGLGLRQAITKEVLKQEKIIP
Sequence of KPC Enzyme (Q9F663 25-293, looked up): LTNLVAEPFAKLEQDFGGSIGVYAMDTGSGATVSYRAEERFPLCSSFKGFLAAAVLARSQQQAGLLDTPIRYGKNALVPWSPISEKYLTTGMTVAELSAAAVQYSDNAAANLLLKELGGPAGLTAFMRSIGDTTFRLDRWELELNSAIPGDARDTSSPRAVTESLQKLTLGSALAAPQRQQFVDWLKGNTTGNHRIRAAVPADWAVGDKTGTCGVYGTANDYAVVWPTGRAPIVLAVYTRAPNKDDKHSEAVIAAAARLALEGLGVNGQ
Sequence of NDM-1 Enzyme (C7C422 29-270, looked up, species assumed): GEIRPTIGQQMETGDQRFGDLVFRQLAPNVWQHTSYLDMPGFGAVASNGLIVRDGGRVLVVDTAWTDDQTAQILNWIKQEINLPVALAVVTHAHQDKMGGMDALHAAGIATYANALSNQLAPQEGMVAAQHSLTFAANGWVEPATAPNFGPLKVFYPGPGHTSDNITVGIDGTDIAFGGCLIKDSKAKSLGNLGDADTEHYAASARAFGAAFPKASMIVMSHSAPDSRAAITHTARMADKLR

IC50 (NDM-1 Enzyme)	IC50 (OXA-48 Enzyme)	IC50 (KPC Enzyme)	SMILES	other results
2900 nM	> 50 µM		CC(C)(C)OC(=O)NCCOC(=O)c1ccc(C2C/C(=N\c3ccccc3)N2c2ccccc2)cc1 (stereo not shown)	
			COc1cc(N2/C(=N/c3ccccc3)CC2c2ccccc2)cc(OC)c1OC (stereo not shown) [T4#7, (E)-N-(4-phenyl-1-(3,4,5-trimethoxyphenyl)azetidin-2-ylidene)aniline]	Slope (stability test of imipenem) ([1]; C 1 μM of tested molecule): 0; Slope (stability test of imipenem) ([1]; C 10 μM of tested molecule): 10; Slope (stability test of imipenem) ([1]; C 100 μM of tested molecule): 174
400 nM	> 50 µM	2.5 to 5 µM	COc1cccc(N2/C(=N/c3ccccc3)CC2c2ccc(Cl)cc2)c1 (stereo not shown)	
< 1000 nM		< 10 µM	CSc1ccc(N2/C(=N/c3ccccc3)CC2c2ccccc2)cc1 (stereo not shown)	inhibition at 5 µM (NDM-1 Enzyme): 98%; inhibition at 20 µM (KPC Enzyme; C 20 μM): 82%; inhibition at 10 µM (OXA-48 Enzyme): 15%
5000 to 10000 nM			COc1ccc(C2C/C(=N\c3ccccc3)N2c2ccc(OC)cc2)cc1 (stereo not shown)	inhibition at 10 µM (NDM-1 Enzyme; C 10 μM): 67%; inhibition at 10 µM (KPC Enzyme): 7%; inhibition at 10 µM (OXA-48 Enzyme): 3%
2500 to 5000 nM		2.5 to 5 µM	COc1ccc(N2/C(=N/c3ccccc3)CC2c2cc(Cl)cc(Cl)c2)cc1 (stereo not shown)	inhibition at 5 µM (NDM-1 Enzyme): 97%; inhibition at 5 µM (KPC Enzyme): 84%; inhibition at 5 µM (OXA-48 Enzyme; C 5 μM): 15%
1100 nM	> 50 µM	5 to 10 µM	COc1ccccc1N1/C(=N/c2ccccc2)CC1c1ccc(Cl)cc1 (stereo not shown)	
1300 nM	> 50 µM	5 to 10 µM	c1ccc(/N=C2\CC(c3ccccc3)N2c2ccc3c(c2)OCCO3)cc1 (stereo not shown)	
400 nM			c1ccc(COc2ccc(N3/C(=N/c4ccccc4)CC3c3ccccc3)cc2)cc1 (stereo not shown)	inhibition at 10 µM (KPC Enzyme): 86%; inhibition at 10 µM (OXA-48 Enzyme): 31%
1300 nM	> 50 µM	5 to 10 µM	COc1cccc(N2/C(=N/c3ccccc3)CC2c2ccccc2)c1 (stereo not shown)	
2500 to 5000 nM	10 to 20 µM	5 to 7 µM	COc1ccc(N2/C(=N/c3ccccc3)CC2c2ccc3ccccc3c2)cc1 (stereo not shown)	inhibition at 5 µM (NDM-1 Enzyme): 94%; inhibition at 10 µM (KPC Enzyme): 99%; inhibition at 20 µM (OXA-48 Enzyme; C 20 μM): 94%
			COc1ccc(N2/C(=N/c3ccccc3)CC2c2ccc(F)cc2)cc1 (stereo not shown)	inhibition at 10 µM (NDM-1 Enzyme; C 10 μM): 9%; inhibition at 10 µM (KPC Enzyme): 10%; OXA-48 Enzyme, effect in words (OXA-48 Enzyme): No reported effect
600 nM	7.4 µM	2.4 µM	CCOc1ccc(N2/C(=N/c3ccc(OC)cc3)CC2c2ccc3ccccc3c2)cc1 (stereo not shown)	
700 nM	> 50 µM	> 50 µM	O=C(O)c1ccc(C2C/C(=N\c3ccccc3)N2c2ccccc2)cc1 (stereo not shown)	
3600 nM	> 10 µM	5 to 7 µM	Oc1ccc(N2/C(=N/c3ccccc3)CC2c2ccc(Cl)cc2)cc1 (stereo not shown)	
2000 to 5000 nM		~7 µM	COc1ccc(N2/C(=N/c3ccccc3)CC2c2ccccc2)cc1 (stereo not shown) [drawing 74]	inhibition at 10 µM (NDM-1 Enzyme; C 10 μM): 90%; OXA-48 Enzyme, effect in words (OXA-48 Enzyme): No reported effect
1100 nM	9.2 µM	3.3 µM	COc1ccc(N2/C(=N/c3ccc(I)cc3)CC2c2ccccc2)cc1 (stereo not shown)	
2600 nM	> 50 µM	1.3 µM	CC(C)(C)OC(=O)COc1ccc(N2/C(=N/c3ccccc3)CC2c2ccc(Cl)cc2)cc1 (stereo not shown)	
< 5000 nM		> 10 µM	COc1ccc(N2/C(=N/c3ccccc3)CC2c2ccccc2)cc1 (single isomer, unassigned) [Enantiomer 2]	inhibition at 10 µM (NDM-1 Enzyme; C 10 μM): 95%; KPC Enzyme Inhibition % (KPC Enzyme): 45%
1800 nM			CC(C)(C)OC(=O)c1ccc(C2C/C(=N\c3ccccc3)N2c2ccccc2)cc1 (stereo not shown)	inhibition at 10 µM (KPC Enzyme): 45%; inhibition at 10 µM (OXA-48 Enzyme): 32%
	> 50 µM	2 µM	COc1ccc(N2/C(=N/c3ccc(Cl)cc3)CC2c2ccccc2)cc1 (stereo not shown)	inhibition at 10 µM (NDM-1 Enzyme; C 10 μM): 100%
> 50000 nM		> 50 µM	COc1cc(N2/C(=N/c3ccccc3)CC2c2ccccc2)cc(OC)c1OC (stereo not shown) [drawing 75]	inhibition at 50 µM (NDM-1 Enzyme; C 50 μM): 78%; OXA-48 Enzyme, effect in words (OXA-48 Enzyme): No reported effect

IC50 (NDM-1 Enzyme)	IC50 (OXA-48 Enzyme)	IC50 (KPC Enzyme)	SMILES	other results
			COc1ccc(N2/C(=N/c3ccccc3)CC2c2ccc(Cl)cc2)cc1 (stereo not shown) [T4#9, (E)-N-(4-(4-chlorophenyl)-1-(4-methoxyphenyl)azetidin-2-ylidene)aniline]	Slope (stability test of imipenem) ([1]; C 1 μM of tested molecule): 2; Slope (stability test of imipenem) ([1]; C 10 μM of tested molecule): 38; Slope (stability test of imipenem) ([1]; C 100 μM of tested molecule): 390
500 to 5000 nM	> 10 µM	< 5 µM	CCOc1ccc(N2/C(=N/c3ccccc3)CC2c2ccccc2)cc1 (stereo not shown)	inhibition at 5 µM (NDM-1 Enzyme): 100%; inhibition at 5 µM (KPC Enzyme): 100%; inhibition at 10 µM (OXA-48 Enzyme): 45%
600 nM	> 50 µM	> 50 µM	O=C(O)COc1ccc(N2/C(=N/c3ccccc3)CC2c2ccc(Cl)cc2)cc1 (stereo not shown)	
			COc1ccc(C2C/C(=N\c3ccccc3)N2c2ccccc2)cc1 (stereo not shown) [T4#2, (E)-N-(4-(4-methoxyphenyl)-1-phenylazetidin-2-ylidene)aniline]	Slope (stability test of imipenem) ([1]; C 1 μM of tested molecule): 3; Slope (stability test of imipenem) ([1]; C 10 μM of tested molecule): 30; Slope (stability test of imipenem) ([1]; C 100 μM of tested molecule): 321
2500 nM		6 µM	ClCc1ccc(C2C/C(=N\c3ccccc3)N2c2ccccc2)cc1 (stereo not shown)	OXA-48 Enzyme Inhibition % (OXA-48 Enzyme): No measurable effect at 10 μM
2000 to 5000 nM			COc1ccc(N2/C(=N/c3ccccc3)CC2c2ccc(Cl)cc2)cc1 (stereo not shown) [drawing 76]	inhibition at 10 µM (NDM-1 Enzyme; C 10 μM): 96%; inhibition at 50 µM (KPC Enzyme; C 50 μM): 44%; OXA-48 Enzyme IC50 (OXA-48 Enzyme): Solubility problems; inhibition at 50 µM (OXA-48 Enzyme; C 50 μM): 21%
4800 nM			COC(=O)c1ccc(C2C/C(=N\c3ccccc3)N2c2ccccc2)cc1 (stereo not shown)	inhibition at 10 µM (KPC Enzyme): 6%; inhibition at 10 µM (OXA-48 Enzyme): 3.5%
< 5000 nM		< 10 µM	COc1ccc(N2/C(=N/c3ccccc3)CC2c2ccccc2)cc1 (single isomer, unassigned) [Enantiomer 1]	NDM-1 Enzyme Inhibition % (NDM-1 Enzyme; C 10 μM): 97%; KPC Enzyme Inhibition % (KPC Enzyme): 70%
800 nM	> 10 µM	> 50 µM	Oc1ccc(N2/C(=N/c3ccccc3)CC2c2ccccc2)cc1 (stereo not shown)	
500 nM	6.2 µM	2.5 µM	CCOc1ccc(N2/C(=N/c3ccc(I)cc3)CC2c2ccc3ccccc3c2)cc1 (stereo not shown)	
> 10000 nM			COc1ccc(C2C/C(=N\c3ccccc3)N2c2ccccc2)cc1 (stereo not shown) [drawing 77]	inhibition at 20 µM (NDM-1 Enzyme; C 20 μM): 58%; KPC Enzyme, effect in words (KPC Enzyme; Inhibition %, IC50): No reported effect; OXA-48 Enzyme, effect in words (OXA-48 Enzyme): No reported effect
	> 50 µM	3.6 µM	COc1ccc(N2/C(=N/c3ccc(C(F)(F)F)cc3)CC2c2ccc(Cl)cc2)cc1 (stereo not shown)	inhibition at 10 µM (NDM-1 Enzyme; C 10 μM): 100%
700 nM	7.5 µM	2.7 µM	COc1ccc(N2/C(=N/c3ccc(I)cc3)CC2c2ccc(Cl)cc2)cc1 (stereo not shown)	
			COc1ccc(N2/C(=N/c3ccccc3)CC2c2ccccc2)cc1 (stereo not shown) [T4#1]	Slope (stability test of imipenem) ([1]; C 1 μM of tested molecule): 9; Slope (stability test of imipenem) ([1]; C 10 μM of tested molecule): 50; Slope (stability test of imipenem) ([1]; C 100 μM of tested molecule): 506
	> 50 µM		[N-]=[N+]=NCc1ccc(C2C/C(=N\c3ccccc3)N2c2ccccc2)cc1 (stereo not shown)	inhibition at 10 µM (NDM-1 Enzyme; C 10 μM): 100%; inhibition at 10 µM (KPC Enzyme): 89%
500 nM	> 50 µM	2.9 µM	COc1ccc(N2/C(=N/c3ccc(Cl)cc3)CC2c2ccc(Cl)cc2)cc1 (stereo not shown)	
500 nM	8.5 µM	2.9 µM	COc1ccc(N2/C(=N/c3ccc(I)cc3)CC2c2cc(Cl)cc(Cl)c2)cc1 (stereo not shown)	
1200 nM		6 µM	c1ccc(/N=C2\CC(c3ccccc3)N2c2ccccc2)cc1 (stereo not shown)	OXA-48 Enzyme Inhibition % (OXA-48 Enzyme): No measurable effect at 10 μM
5000 nM			c1ccc(/N=C2\CC(c3ccccc3)N2c2ccc3c(c2)OCO3)cc1 (stereo not shown)	inhibition at 10 µM (KPC Enzyme): 6%; inhibition at 10 µM (OXA-48 Enzyme): 20%
5000 to 10000 nM			COc1ccc(N2/C(=N/c3ccccc3)CC2c2ccccc2)cc1OC (stereo not shown)	inhibition at 10 µM (KPC Enzyme): 17%; inhibition at 10 µM (OXA-48 Enzyme): 9%
> 100000 nM		> 100 µM	COc1ccc(N2/C(=N/c3ccccc3)CC2c2cccnc2)cc1 (stereo not shown)	inhibition at 100 µM (NDM-1 Enzyme; C 100 μM): 23%; inhibition at 100 µM (KPC Enzyme; C 100 μM): 12%; OXA-48 Enzyme, effect in words (OXA-48 Enzyme): No reported effect
